Laboratory results from ChEMBL document CHEMBL1909046, “DrugMatrix in vitro pharmacology data”.

Assays:
[1] = DRUGMATRIX: GABAA, Flunitrazepam, Central radioligand binding (ligand: [3H] Flunitrazepam); type: cell membranes, Rattus norvegicus, Wistar, Brain, Membrane; conditions: Not Active = under 50% inhibition at 10 µM
[2] = target: T1, C-X-C chemokine receptor type 1 (Homo sapiens, UniProt P25024); further: in other assays of this panel Not Active means under 50% inhibition at 10 µM
T1 sequence (P25024 whole entry): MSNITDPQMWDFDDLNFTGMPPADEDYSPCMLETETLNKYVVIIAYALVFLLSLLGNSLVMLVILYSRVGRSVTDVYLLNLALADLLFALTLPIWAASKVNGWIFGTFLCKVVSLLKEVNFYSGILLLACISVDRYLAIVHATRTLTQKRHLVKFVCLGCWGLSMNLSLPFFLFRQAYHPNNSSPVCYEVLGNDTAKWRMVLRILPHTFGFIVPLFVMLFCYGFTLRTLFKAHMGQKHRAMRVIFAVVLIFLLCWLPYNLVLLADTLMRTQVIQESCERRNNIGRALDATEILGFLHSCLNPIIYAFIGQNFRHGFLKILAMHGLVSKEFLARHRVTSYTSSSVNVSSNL

[3] = target: Vascular endothelial growth factor receptor 1 (Homo sapiens, UniProt P17948); type: cell-based; conditions: huvec; further: in other assays of this panel Not Active means under 50% inhibition at 10 µM
[4] = DRUGMATRIX: Calcium Channel Type L, Benzothiazepine radioligand binding (ligand: [3H] Diltiazem); type: cell membranes, Rattus norvegicus, Wistar, Brain, Membrane; conditions: Not Active = under 50% inhibition at 10 µM
[5] = target: Beta-2 adrenergic receptor (Homo sapiens, UniProt P07550); assay: DRUGMATRIX: Adrenergic beta2 radioligand binding (ligand: [3H] CGP-12177); type: cell membranes, Membrane; conditions: cho; Not Active = under 50% inhibition at 10 µM
[6] = DRUGMATRIX: Glutamate, NMDA, Phencyclidine radioligand binding (ligand: [3H] TCP); type: cell membranes, Rattus norvegicus, Wistar, Cerebral cortex, Membrane; conditions: Not Active = under 50% inhibition at 10 µM
[7] = target: T2, Adenosine receptor A1 (Homo sapiens, UniProt P30542); type: cell membranes, Membrane; conditions: cho;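 further: radioligand binding assay at the adenosine A1 receptor, with DPCPX serving as the labelled ligand; in other assays of this panel Not Active means under 50% inhibition at 10 µM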
T2 sequence (P30542 whole entry): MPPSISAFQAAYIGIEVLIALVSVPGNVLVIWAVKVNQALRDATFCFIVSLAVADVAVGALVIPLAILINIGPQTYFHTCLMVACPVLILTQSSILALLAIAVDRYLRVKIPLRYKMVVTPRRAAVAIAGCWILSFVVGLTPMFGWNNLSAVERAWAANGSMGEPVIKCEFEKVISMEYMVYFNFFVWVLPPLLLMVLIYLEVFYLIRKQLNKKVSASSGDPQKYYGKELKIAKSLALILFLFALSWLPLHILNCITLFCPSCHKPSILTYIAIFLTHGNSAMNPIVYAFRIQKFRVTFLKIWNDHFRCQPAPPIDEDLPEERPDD

[8] = target: T3, Calcitonin receptor (Homo sapiens, UniProt P30988); type: cell membranes, Membrane; conditions: t47d; further: in other assays of this panel Not Active means under 50% inhibition at 10 µM
T3 sequence (P30988 whole entry): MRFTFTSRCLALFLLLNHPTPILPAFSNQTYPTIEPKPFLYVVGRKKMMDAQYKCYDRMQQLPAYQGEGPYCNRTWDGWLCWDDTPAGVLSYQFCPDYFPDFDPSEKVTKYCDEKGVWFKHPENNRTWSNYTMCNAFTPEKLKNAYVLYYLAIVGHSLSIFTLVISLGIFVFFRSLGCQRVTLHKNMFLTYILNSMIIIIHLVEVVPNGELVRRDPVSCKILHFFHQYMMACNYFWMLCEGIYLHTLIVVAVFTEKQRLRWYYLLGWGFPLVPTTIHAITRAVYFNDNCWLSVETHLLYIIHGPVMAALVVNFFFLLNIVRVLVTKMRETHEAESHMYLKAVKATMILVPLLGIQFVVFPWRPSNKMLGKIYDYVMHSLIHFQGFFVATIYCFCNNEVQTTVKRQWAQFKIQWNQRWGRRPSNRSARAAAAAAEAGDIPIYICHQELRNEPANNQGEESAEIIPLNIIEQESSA

Vascular endothelial growth factor receptor 1, sequence (P17948 whole entry): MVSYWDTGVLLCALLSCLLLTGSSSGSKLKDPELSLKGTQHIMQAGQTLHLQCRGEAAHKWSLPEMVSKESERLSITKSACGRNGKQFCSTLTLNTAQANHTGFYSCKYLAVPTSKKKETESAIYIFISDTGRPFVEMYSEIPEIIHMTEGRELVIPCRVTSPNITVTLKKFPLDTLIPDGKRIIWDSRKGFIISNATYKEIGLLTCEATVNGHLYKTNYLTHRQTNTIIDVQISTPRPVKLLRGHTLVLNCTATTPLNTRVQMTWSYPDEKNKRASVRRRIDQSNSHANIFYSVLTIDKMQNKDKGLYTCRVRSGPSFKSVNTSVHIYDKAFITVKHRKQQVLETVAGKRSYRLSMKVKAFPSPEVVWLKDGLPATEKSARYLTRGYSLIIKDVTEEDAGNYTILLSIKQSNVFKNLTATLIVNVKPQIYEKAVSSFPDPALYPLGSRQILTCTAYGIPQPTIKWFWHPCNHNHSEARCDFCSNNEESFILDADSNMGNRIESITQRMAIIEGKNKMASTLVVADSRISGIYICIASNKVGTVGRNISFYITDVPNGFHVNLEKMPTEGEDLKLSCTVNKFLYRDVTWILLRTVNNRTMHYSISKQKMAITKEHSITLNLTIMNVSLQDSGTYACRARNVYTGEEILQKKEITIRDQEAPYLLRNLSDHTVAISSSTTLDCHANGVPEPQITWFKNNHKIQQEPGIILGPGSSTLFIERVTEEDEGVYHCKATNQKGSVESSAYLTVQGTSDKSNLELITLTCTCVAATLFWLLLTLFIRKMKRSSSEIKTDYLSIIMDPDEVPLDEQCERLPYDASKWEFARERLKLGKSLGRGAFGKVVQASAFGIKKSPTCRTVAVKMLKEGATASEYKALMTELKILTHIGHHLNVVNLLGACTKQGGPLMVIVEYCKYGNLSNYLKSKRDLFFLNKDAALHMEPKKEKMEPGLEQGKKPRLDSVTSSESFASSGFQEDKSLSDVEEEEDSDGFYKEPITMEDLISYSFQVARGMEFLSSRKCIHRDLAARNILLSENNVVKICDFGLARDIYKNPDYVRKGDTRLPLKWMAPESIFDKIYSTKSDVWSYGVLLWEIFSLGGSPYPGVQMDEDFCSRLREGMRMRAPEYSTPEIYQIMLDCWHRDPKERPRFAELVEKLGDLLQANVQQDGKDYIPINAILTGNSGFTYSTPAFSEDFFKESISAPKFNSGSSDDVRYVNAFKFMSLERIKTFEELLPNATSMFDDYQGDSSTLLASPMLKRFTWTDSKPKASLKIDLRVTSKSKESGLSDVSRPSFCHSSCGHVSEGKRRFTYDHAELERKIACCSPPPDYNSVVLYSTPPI
Beta-2 adrenergic receptor, sequence (P07550 whole entry): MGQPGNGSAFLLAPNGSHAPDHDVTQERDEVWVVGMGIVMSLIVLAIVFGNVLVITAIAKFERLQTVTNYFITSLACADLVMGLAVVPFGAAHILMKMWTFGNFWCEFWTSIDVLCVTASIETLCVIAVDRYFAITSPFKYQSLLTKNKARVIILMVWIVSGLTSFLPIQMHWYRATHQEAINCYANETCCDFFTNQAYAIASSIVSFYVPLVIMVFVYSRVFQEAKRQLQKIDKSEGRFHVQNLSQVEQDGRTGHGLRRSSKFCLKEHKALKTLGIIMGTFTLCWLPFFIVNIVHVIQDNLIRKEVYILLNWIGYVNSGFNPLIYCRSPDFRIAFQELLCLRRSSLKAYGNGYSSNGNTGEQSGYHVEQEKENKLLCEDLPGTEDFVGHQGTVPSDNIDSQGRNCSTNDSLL

## CCCCOc1ccc(OCCCN2CCOCC2)cc1 [PRAMOXINE]
[1]
  IC50: Not Active
  Ki: Not Active
[2]
  IC50: Not Active
[3]
  IC50: Not Active
[4]
  IC50: Not Active
  Ki: Not Active
[5]
  IC50: Not Active
[6]
  IC50: Not Active
  Ki: Not Active
[7]
  IC50: Not Active
[8]
  IC50: Not Active

## COc1cccc2c1C(=O)c1c(O)c3c(c(O)c1C2=O)C[C@@](O)(C(=O)CO)C[C@@H]3O[C@H]1C[C@H](N)[C@H](O)[C@H](C)O1 [DOXORUBICIN]
[1]
  IC50: Not Active
  Ki: Not Active
[2]
  IC50: Not Active
[3]
  IC50: Not Active
[4]
  IC50: Not Active
  Ki: Not Active
[5]
  IC50: Not Active
[6]
  IC50: Not Active
  Ki: Not Active
[7]
  IC50: Not Active
[8]
  IC50: Not Active

## C[C@H]1C[C@H]2[C@@H]3CCC4=CC(=O)C=C[C@]4(C)[C@@]3(Cl)[C@@H](O)C[C@]2(C)[C@@]1(O)C(=O)CO [BECLOMETHASONE]
[1]
  IC50: Not Active
  Ki: Not Active
[2]
  IC50: Not Active
[3]
  IC50: Not Active
[4]
  IC50: Not Active
  Ki: Not Active
[5]
  IC50: Not Active
[6]
  IC50: Not Active
  Ki: Not Active
[7]
  IC50: Not Active
[8]
  IC50: Not Active

## CCN(CC)CCOC(=O)c1ccc(N)cc1 [PROCAINE]
[1]
  IC50: Not Active
  Ki: Not Active
[2]
  IC50: Not Active
[3]
  IC50: Not Active
[4]
  IC50: Not Active
  Ki: Not Active
[5]
  IC50: Not Active
[6]
  IC50: Not Active
  Ki: Not Active
[7]
  IC50: Not Active
[8]
  IC50: Not Active

## O=C(O)Cc1ccccc1Nc1c(Cl)cccc1Cl [DICLOFENAC]
[1]
  IC50: Not Active
  Ki: Not Active
[2]
  IC50: Not Active
[3]
  IC50: Not Active
[4]
  IC50: Not Active
  Ki: Not Active
[5]
  IC50: Not Active
[6]
  IC50: Not Active
  Ki: Not Active
[7]
  IC50: Not Active
[8]
  IC50: Not Active

## CC(C)[C@H]1CC[C@H](C(=O)N[C@H](Cc2ccccc2)C(=O)O)CC1 [NATEGLINIDE]
[1]
  IC50: Not Active
  Ki: Not Active
[2]
  IC50: Not Active
[3]
  IC50: Not Active
[4]
  IC50: Not Active
  Ki: Not Active
[5]
  IC50: Not Active
[6]
  IC50: Not Active
  Ki: Not Active
[7]
  IC50: Not Active
[8]
  IC50: Not Active

## Nc1c(CC(=O)O)cccc1C(=O)c1ccc(Br)cc1 [BROMFENAC]
[1]
  IC50: Not Active
  Ki: Not Active
[2]
  IC50: Not Active
[3]
  IC50: Not Active
[4]
  IC50: Not Active
  Ki: Not Active
[5]
  IC50: Not Active
[6]
  IC50: Not Active
  Ki: Not Active
[7]
  IC50: Not Active
[8]
  IC50: Not Active

## CC(=O)Nc1cccc(O)c1 [METACETAMOL]
[1]
  IC50: Not Active
  Ki: Not Active
[2]
  IC50: Not Active
[3]
  IC50: Not Active
[4]
  IC50: Not Active
  Ki: Not Active
[5]
  IC50: Not Active
[6]
  IC50: Not Active
  Ki: Not Active
[7]
  IC50: Not Active
[8]
  IC50: Not Active

## CCn1cc(C(=O)O)c(=O)c2cc(F)c(N3CCN(C)CC3)cc21 [PEFLOXACIN]
[1]
  IC50: Not Active
  Ki: Not Active
[2]
  IC50: Not Active
[3]
  IC50: Not Active
[4]
  IC50: Not Active
  Ki: Not Active
[5]
  IC50: Not Active
[6]
  IC50: Not Active
  Ki: Not Active
[7]
  IC50: Not Active
[8]
  IC50: Not Active

## COc1ccc2c(c1)c(CC(=O)O)c(C)n2C(=O)c1ccc(Cl)cc1 [INDOMETHACIN]
[1]
  IC50: Not Active
  Ki: Not Active
[2]
  IC50: Not Active
[3]
  IC50: Not Active
[4]
  IC50: Not Active
  Ki: Not Active
[5]
  IC50: Not Active
[6]
  IC50: Not Active
  Ki: Not Active
[7]
  IC50: Not Active
[8]
  IC50: Not Active

## C[C@H]1O[C@@H](O[C@H]2[C@@H](O)C[C@H](O[C@H]3[C@@H](O)C[C@H](O[C@H]4CC[C@@]5(C)[C@H](CC[C@@H]6[C@@H]5CC[C@]5(C)[C@@H](C7=CC(=O)OC7)CC[C@]65O)C4)O[C@@H]3C)O[C@@H]2C)C[C@H](O)[C@@H]1O [DIGITOXIN]
[1]
  IC50: Not Active
  Ki: Not Active
[2]
  IC50: Not Active
[3]
  IC50: Not Active
[4]
  IC50: Not Active
  Ki: Not Active
[5]
  IC50: Not Active
[6]
  IC50: Not Active
  Ki: Not Active
[7]
  IC50: Not Active
[8]
  IC50: Not Active

## S=C=Nc1cccc2ccccc12 [1-NAPHTHYLISOTHIOCYANATE]
[1]
  IC50: Not Active
  Ki: Not Active
[2]
  IC50: Not Active
[3]
  IC50: Not Active
[4]
  IC50: Not Active
  Ki: Not Active
[5]
  IC50: Not Active
[6]
  IC50: Not Active
  Ki: Not Active
[7]
  IC50: Not Active
[8]
  IC50: Not Active

## C[C@]12CC[C@@H]3c4ccc(O)cc4CC[C@H]3[C@@H]1CC[C@@H]2O [ESTRADIOL]
[1]
  IC50: Not Active
  Ki: Not Active
[2]
  IC50: Not Active
[3]
  IC50: Not Active
[4]
  IC50: Not Active
  Ki: Not Active
[5]
  IC50: Not Active
[6]
  IC50: Not Active
  Ki: Not Active
[7]
  IC50: Not Active
[8]
  IC50: Not Active

## CCOC(=O)C1=C(C)NC(C)=C(C(=O)OC)C1c1cccc([N+](=O)[O-])c1 (centres undefined) [NITRENDIPINE]
[1]
  IC50: Not Active
  Ki: Not Active
[2]
  IC50: Not Active
[3]
  IC50: Not Active
[4]; read-out: IC50
  IC50: 1.56 nM
[4]; read-out: Ki
  Ki: 1.39 nM
[5]
  IC50: Not Active
[6]
  IC50: Not Active
  Ki: Not Active
[7]
  IC50: Not Active
[8]
  IC50: Not Active

## CC1=C(C(=O)O)N2C(=O)[C@@H](NC(=O)[C@H](N)c3ccccc3)[C@H]2SC1 [CEPHALEXIN ANHYDROUS]
[1]
  IC50: Not Active
  Ki: Not Active
[2]
  IC50: Not Active
[3]
  IC50: Not Active
[4]
  IC50: Not Active
  Ki: Not Active
[5]
  IC50: Not Active
[6]
  IC50: Not Active
  Ki: Not Active
[7]
  IC50: Not Active
[8]
  IC50: Not Active

## CN(C)/N=N/c1[nH]cnc1C(N)=O [DACARBAZINE]
[1]
  IC50: Not Active
  Ki: Not Active
[2]
  IC50: Not Active
[3]
  IC50: Not Active
[4]
  IC50: Not Active
  Ki: Not Active
[5]
  IC50: Not Active
[6]
  IC50: Not Active
  Ki: Not Active
[7]
  IC50: Not Active
[8]
  IC50: Not Active

## COc1ccc2c(c1)[C@]13CCCC[C@@H]1[C@H](C2)N(C)CC3 [DEXTROMETHORPHAN]
[1]
  IC50: Not Active
  Ki: Not Active
[2]
  IC50: Not Active
[3]
  IC50: Not Active
[4]
  IC50: Not Active
  Ki: Not Active
[5]
  IC50: Not Active
[6]; read-out: IC50
  IC50: 2420 nM
[6]; read-out: Ki
  Ki: 1640 nM
[7]
  IC50: Not Active
[8]
  IC50: Not Active

## COc1ccccc1C(=O)N1CCC(Cc2ccccc2)CC1
[1]
  IC50: Not Active
  Ki: Not Active
[2]
  IC50: Not Active
[3]
  IC50: Not Active
[4]
  IC50: Not Active
  Ki: Not Active
[5]
  IC50: Not Active
[6]
  IC50: Not Active
  Ki: Not Active
[7]
  IC50: Not Active
[8]
  IC50: Not Active

## C=C1CC[C@H](O)C/C1=C/C=C1\CCC[C@]2(C)[C@@H]([C@H](C)CCCC(C)C)CC[C@@H]12 [CHOLECALCIFEROL]
[1]
  IC50: Not Active
  Ki: Not Active
[2]
  IC50: Not Active
[3]
  IC50: Not Active
[4]
  IC50: Not Active
  Ki: Not Active
[5]
  IC50: Not Active
[6]
  IC50: Not Active
  Ki: Not Active
[7]
  IC50: Not Active
[8]
  IC50: Not Active
